From publication PMC11885754, “Engineered phenylalanine hydroxylase coupled with an effective cofactor synthesis and regeneration system for high-yield production of 5-hydroxytryptophan” (Bioresources and Bioprocessing, 2025)

Target: T1, XcPAH (Xanthomonas campestris, UniProt Q8PE27)
T1 construct: gene pah; full length 296 aa, synthesized gene in pET30a (BamHI/XhoI) co-expressed with CvPCD and EcFolM in E. coli BL21(DE3)-derived strain TRP1
T1 sequence (Q8PE27 1-296): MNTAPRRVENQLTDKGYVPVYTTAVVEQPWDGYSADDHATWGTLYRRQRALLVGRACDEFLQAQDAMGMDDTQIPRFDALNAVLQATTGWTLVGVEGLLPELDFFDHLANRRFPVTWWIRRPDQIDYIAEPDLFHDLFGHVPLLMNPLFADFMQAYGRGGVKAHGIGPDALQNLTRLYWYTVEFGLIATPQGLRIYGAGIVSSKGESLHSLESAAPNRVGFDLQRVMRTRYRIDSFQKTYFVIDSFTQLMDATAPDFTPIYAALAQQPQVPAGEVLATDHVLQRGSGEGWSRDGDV
Assay: whole-cell conversion of L-Phe to L-Tyr, HPLC
Format: cell-based
Conditions: E. coli TRP1 cells, 10 mM L-Phe, endogenous MH4 with CvPCD-EcFolM regeneration, 25 °C, 24 h, pH about 7.0

With `N[C@@H](Cc1ccccc1)C(=O)O` [L-Phe] the “whole-cell conversion of L-Phe to L-Tyr, HPLC” value was “(TRP1-XC1 and TRP1-CT1) were capable of converting L-Phe into L-Tyr”.
